Data set [1] relates to rats persistently choosing the left side of the labyrinth. Briefly: Lateralization of free behaviour in the T-shaped labyrinth. Type of data set: in vivo, rat. The conditions noted are these: for Number of runs to the right, Series I / Number of runs to the right, Series II / Number of runs to the right, Series III: 20 animals. As for the experimental part:
Also studied was the change of lateralization of free behaviour of rats in the T-shaped labyrinth. In the experiment rats of both sexes with a mass of 180-230 g were used. Preliminary experiments were carried out on 120 animals, then a group of 40 animals was chosen which during 20 days selected the left corridor in the first attempt of running through the labyrinth.
The data on the capacity of the preparation according to the present invention to enhance the domination of one (left) brain hemisphere have been supported in behaviour experiments on rats where the change in lateralization of a free behaviour of rats in a T-shaped labyrinth was studied.

For a further data set, the system named is rats. The experiment in a line: Teaching of rats in a T-shaped labyrinth with positive meal support. In kind it is in vivo, rat. From the text: In the second series of experiments the preparation according to the present invention was studied for the effect on teaching of rats in a T-shaped labyrinth in one compartment of which a feedbox with meal was provided. Rats deprived of meals during the day were placed into the starting compartment of the labyrinth and taught to find the feed-box in the proper compartment of the labyrinth. The response time, the number of unrealized reactions, the latent period, and the number of errors were noted.
Similar results were obtained in experiments in a T-shaped labyrinth with the use of a positive meal support.

Data set [2] can be described thus: Carcinogenic, mutagenic, teratogenic, embryotoxic effect.

SMILES strings stand for the structures.

Turning to `Cl.Nc1c2c(nc3c1CCC3)CCCC2.O` [preparation of the invention, 9-amino-2,3,5,6,7,8-hexahydro-1H-cyclopenta(b)quinoline monohydrate hydrochloride], the “choice of the right side of the labyrinth (in words)” value in data set [1] was “statistically markedly increased”. Besides, in data set [1] (hypodermally 5 mg/kg), the “Number of runs to the right, Series I” value is 10; the “Number of runs to the right, Series II” value was found to be 12; the “Number of runs to the right, Series III” value is listed as 14. In data set [1] (hypodermally 10 mg/kg), the “Number of runs to the right, Series I” value came to 9; the “Number of runs to the right, Series II” value was 14; the “Number of runs to the right, Series III” value was 15. For the same molecule, the “number of response failures as compared to the initial level on the first day of teaching” value in the data set on rats (rats, 5 mg/kg, by the fourth day of teaching, control 60-70%) is reported as 40%. Besides, in the data set with rats (rats, 1, 5 and 10 mg/kg), the “number of response failures (in words)” value was “reduced number of response failures”. For the same molecule, in data set [2], the carcinogenic effect entry is given as “neither provides a carcinogenic, mutagenic, teratogenic or embryotoxic effect”; the embryotoxic effect result is reported as “neither provides a carcinogenic, mutagenic, teratogenic or embryotoxic effect”; the mutagenic effect entry is “neither provides a carcinogenic, mutagenic, teratogenic or embryotoxic effect”; the teratogenic effect result was “neither provides a carcinogenic, mutagenic, teratogenic or embryotoxic effect”.

Source of the values: patent US4735953A, “Pharmaceutical preparation for learning stimulation and memory improvement” (priority 1986, dated 1988).
